This experiment concerns KRAS G12V dependent lung adenocarcinoma cell line, NCI-H441. As to the kind of experiment: Cellular pERK (Thr202/Tyr204) FRET/HTRF assay. In kind it is cell-based. Particulars: Homo sapiens, NCI-H441, cellular pERK (Thr202/Tyr204) HTRF, NCI-H441 cells. The gist of the method: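 Using a mix-and-read HTRF kit, phospho-ERK (Thr202/Tyr204) was detected in NCI-H441 lysates following 1 hr compound incubation at 37 °C, 5% CO2. Cells had been seeded overnight beforehand, and IC50 was derived by curve fitting.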

Some results are limits rather than exact numbers.

Usually IC50 stands for the midpoint of a concentration-inhibition curve. A higher IC50 goes with weaker potency in that assay. In turn, `C#Cc1cccc2cc(O)cc(-c3ncc4c(N5CCOC[C@H]6[C@H](F)[C@H]65)nc(OC[C@@H]5CCCN5C)nc4c3F)c12` [Example 295, 5-ethynyl-4-(8-fluoro-4-((1S,7S,8S)-8-fluoro-5-oxa-2-azabicyclo[5.1.0]octan-2-yl)-2-(((S)-1-methylpyrrolidin-2-yl)methoxy)pyrido[4,3-d]pyrimidin-7-yl)naphthalen-2-ol] gave an IC50 of less than 0.05 µM.

With `C#Cc1c(Cl)ccc2cc(N)cc(-c3ncc4c(N5CCOC[C@H]6[C@H](F)[C@H]65)nc(OC[C@@H]5CCCN5C)nc4c3F)c12` [Example 296, 6-chloro-5-ethynyl-4-(8-fluoro-4-((1S,7S,8S)-8-fluoro-5-oxa-2-azabicyclo[5.1.0]octan-2-yl)-2-(((S)-1-methylpyrrolidin-2-yl)methoxy)pyrido[4,3-d]pyrimidin-7-yl)naphthalen-2-amine], the IC50 is less than 0.05 µM.

Compound `C#Cc1cccc2cc(N)cc(-c3ncc4c(N5CCOC[C@H]6[C@H](F)[C@H]65)nc(OC[C@@H]5CCCN5C)nc4c3F)c12` [Example 297, 5-ethynyl-4-(8-fluoro-4-((1S,7S,8S)-8-fluoro-5-oxa-2-azabicyclo[5.1.0]octan-2-yl)-2-(((S)-1-methylpyrrolidin-2-yl)methoxy)pyrido[4,3-d]pyrimidin-7-yl)naphthalen-2-amine] yielded an IC50 of less than 0.05 µM.

The compound `[2H]C([2H])(Oc1nc(N2CCOC[C@H]3[C@H](F)[C@H]32)c2cnc(-c3cc(O)cc(Cl)c3C(F)(F)F)c(F)c2n1)[C@@]12CCCN1C[C@H](F)C2` [Example 298, 3-chloro-5-(8-fluoro-4-((1S,7S,8S)-8-fluoro-5-oxa-2-azabicyclo[5.1.0]octan-2-yl)-2-(((2R,7aS)-2-fluorotetrahydro-1H-pyrrolizin-7a(5H)-yl)methoxy-d2)pyrido[4,3-d]pyrimidin-7-yl)-4-(trifluoromethyl)phenol] yielded an IC50 of less than 0.05 µM.

Consider `[2H]C([2H])(Oc1nc(N2CCOC[C@H]3[C@H](F)[C@H]32)c2cnc(-c3cc(N)c(F)cc3C(F)(F)F)c(F)c2n1)[C@@]12CCCN1C[C@H](F)C2` [Example 299, 2-fluoro-5-(8-fluoro-4-((1S,7S,8S)-8-fluoro-5-oxa-2-azabicyclo[5.1.0]octan-2-yl)-2-(((2R,7aS)-2-fluorotetrahydro-1H-pyrrolizin-7a(5H)-yl)methoxy-d2)pyrido[4,3-d]pyrimidin-7-yl)-4-(trifluoromethyl)aniline], for which the IC50 was 0.05 to 0.5 µM.

`[2H]C([2H])(Oc1nc(N2CCOC[C@H]3[C@H](F)[C@H]32)c2cnc(-c3cc(O)cc4cccc(C#C)c34)c(F)c2n1)[C@@]12CCCN1C[C@H](F)C2` [Example 300, 5-ethynyl-4-(8-fluoro-4-((1S,7S,8S)-8-fluoro-5-oxa-2-azabicyclo[5.1.0]octan-2-yl)-2-(((2R,7aS)-2-fluorotetrahydro-1H-pyrrolizin-7a(5H)-yl)methoxy-d2)pyrido[4,3-d]pyrimidin-7-yl)naphthalen-2-ol] displayed an IC50 of less than 0.05 µM.

In turn, `C#Cc1c(F)ccc2cc(N)cc(-c3ncc4c(N5CCOC[C@@H]6[C@@H](Cl)[C@@H]65)nc(OC[C@@H]5CCCN5C)nc4c3F)c12` [Example 301, 4-(4-((1R,7R,8R)-8-chloro-5-oxa-2-azabicyclo[5.1.0]octan-2-yl)-8-fluoro-2-(((S)-1-methylpyrrolidin-2-yl)methoxy)pyrido[4,3-d]pyrimidin-7-yl)-5-ethynyl-6-fluoronaphthalen-2-amine] came in with an IC50 of 0.05 to 0.5 µM.

Compound `C#Cc1c(F)ccc2cc(N)cc(-c3ncc4c(N5CCOC[C@H]6[C@H](Cl)[C@H]65)nc(OC[C@@H]5CCCN5C)nc4c3F)c12` [Example 302, 4-(4-((1S,7S,8S)-8-chloro-5-oxa-2-azabicyclo[5.1.0]octan-2-yl)-8-fluoro-2-(((S)-1-methylpyrrolidin-2-yl)methoxy)pyrido[4,3-d]pyrimidin-7-yl)-5-ethynyl-6-fluoronaphthalen-2-amine] returned an IC50 of less than 0.05 µM.

On to `[2H]C([2H])(Oc1nc(N2CCOC[C@H]3[C@H](F)[C@H]32)c2c(F)nc(-c3cc(N)cc4ccc(F)c(C#C)c34)c(F)c2n1)[C@@]12CCCN1C[C@H](F)C2` [Example 303, 4-(5,8-Difluoro-4-((1S,7S,8S)-8-fluoro-5-oxa-2-azabicyclo[5.1.0]octan-2-yl)-2-(((2R,7aS)-2-fluorotetrahydro-1H-pyrrolizin-7a(5H)-yl)methoxy-d2)pyrido[4,3-d]pyrimidin-7-yl)-5-ethynyl-6-fluoronaphthalen-2-amine], for which the IC50 was less than 0.05 µM.

`[2H]C([2H])(Oc1nc(N2CC[C@@H](C#N)C[C@H]3[C@H](F)[C@H]32)c2cnc(-c3cc(N)cc4ccc(F)c(C#C)c34)c(F)c2n1)[C@@]12CCCN1C[C@H](F)C2` [Example 304, (1S,5S,7R,8S)-2-(7-(3-amino-8-ethynyl-7-fluoronaphthalen-1-yl)-8-fluoro-2-(((2R,7aS)-2-fluorotetrahydro-1H-pyrrolizin-7a(5H)-yl)methoxy-d2)pyrido[4,3-d]pyrimidin-4-yl)-8-fluoro-2-azabicyclo[5.1.0]octane-5-carbonitrile]: the IC50 was less than 0.05 µM.

Compound `[2H]C([2H])(Oc1nc(N2CC[C@@H](C#N)C[C@@H]3[C@@H](F)[C@@H]32)c2cnc(-c3cc(N)cc4ccc(F)c(C#C)c34)c(F)c2n1)[C@@]12CCCN1C[C@H](F)C2` [Example 305, (1R,5S,7S,8R)-2-(7-(3-amino-8-ethynyl-7-fluoronaphthalen-1-yl)-8-fluoro-2-(((2R,7aS)-2-fluorotetrahydro-1H-pyrrolizin-7a(5H)-yl)methoxy-d2)pyrido[4,3-d]pyrimidin-4-yl)-8-fluoro-2-azabicyclo[5.1.0]octane-5-carbonitrile] yielded an IC50 of 0.05 to 0.5 µM.

Compound `[2H]C([2H])(Oc1nc(N2CC[C@H](C#N)C[C@H]3[C@H](F)[C@H]32)c2cnc(-c3cc(N)cc4ccc(F)c(C#C)c34)c(F)c2n1)[C@@]12CCCN1C[C@H](F)C2` [Example 306, (1S,5R,7R,8S)-2-(7-(3-amino-8-ethynyl-7-fluoronaphthalen-1-yl)-8-fluoro-2-(((2R,7aS)-2-fluorotetrahydro-1H-pyrrolizin-7a(5H)-yl)methoxy-d2)pyrido[4,3-d]pyrimidin-4-yl)-8-fluoro-2-azabicyclo[5.1.0]octane-5-carbonitrile] registered an IC50 of 0.05 to 0.5 µM.

Compound `[2H]C([2H])(Oc1nc(N2CC[C@H](C#N)C[C@@H]3[C@@H](F)[C@@H]32)c2cnc(-c3cc(N)cc4ccc(F)c(C#C)c34)c(F)c2n1)[C@@]12CCCN1C[C@H](F)C2` [Example 307, (1R,5R,7S,8R)-2-(7-(3-amino-8-ethynyl-7-fluoronaphthalen-1-yl)-8-fluoro-2-(((2R,7aS)-2-fluorotetrahydro-1H-pyrrolizin-7a(5H)-yl)methoxy-d2)pyrido[4,3-d]pyrimidin-4-yl)-8-fluoro-2-azabicyclo[5.1.0]octane-5-carbonitrile] registered an IC50 of 0.05 to 0.5 µM.

Compound `[2H]C([2H])(Oc1nc(N2CC[C@@H](C#N)C[C@H]3[C@@H](F)[C@H]32)c2cnc(-c3cc(N)cc4ccc(F)c(C#C)c34)c(F)c2n1)[C@@]12CCCN1C[C@H](F)C2` [Example 308, (1S,5S,7R,8R)-2-(7-(3-amino-8-ethynyl-7-fluoronaphthalen-1-yl)-8-fluoro-2-(((2R,7aS)-2-fluorotetrahydro-1H-pyrrolizin-7a(5H)-yl)methoxy-d2)pyrido[4,3-d]pyrimidin-4-yl)-8-fluoro-2-azabicyclo[5.1.0]octane-5-carbonitrile] had an IC50 of 0.05 to 0.5 µM.

Consider `[2H]C([2H])(Oc1nc(N2CC[C@H](C#N)C[C@H]3[C@@H](F)[C@H]32)c2cnc(-c3cc(N)cc4ccc(F)c(C#C)c34)c(F)c2n1)[C@@]12CCCN1C[C@H](F)C2` [Example 310, (1S,5R,7R,8R)-2-(7-(3-amino-8-ethynyl-7-fluoronaphthalen-1-yl)-8-fluoro-2-(((2R,7aS)-2-fluorotetrahydro-1H-pyrrolizin-7a(5H)-yl)methoxy-d2)pyrido[4,3-d]pyrimidin-4-yl)-8-fluoro-2-azabicyclo[5.1.0]octane-5-carbonitrile], for which the IC50 lay within 0.05 to 0.5 µM.

`[2H]C([2H])(Oc1nc(N2CC[C@@H](C#N)C[C@@H]3[C@H](F)[C@@H]32)c2cnc(-c3cc(N)cc4ccc(F)c(C#C)c34)c(F)c2n1)[C@@]12CCCN1C[C@H](F)C2` [Example 311, (1R,5S,7S,8S)-2-(7-(3-amino-8-ethynyl-7-fluoronaphthalen-1-yl)-8-fluoro-2-(((2R,7aS)-2-fluorotetrahydro-1H-pyrrolizin-7a(5H)-yl)methoxy-d2)pyrido[4,3-d]pyrimidin-4-yl)-8-fluoro-2-azabicyclo[5.1.0]octane-5-carbonitrile] gave an IC50 of 0.05 to 0.5 µM.

In the case of `[2H]C([2H])(Oc1nc(N2CCOC[C@H]3[C@H](F)[C@H]32)c2cnc(-c3cccc4ccc(Cl)c(C#C)c34)c(F)c2n1)[C@@]12CCCN1C[C@H](F)C2` [Example 318, (1S,7S,8S)-2-(7-(7-chloro-8-ethynylnaphthalen-1-yl)-8-fluoro-2-(((2R,7aS)-2-fluorotetrahydro-1H-pyrrolizin-7a(5H)-yl)methoxy-d2)pyrido[4,3-d]pyrimidin-4-yl)-8-fluoro-5-oxa-2-azabicyclo[5.1.0]octane], the IC50 was less than 0.05 µM.

`[2H]C([2H])(Oc1nc(N2CCOC[C@H]3[C@H](F)[C@H]32)c2cnc(-c3cccc4cccc(C#C)c34)c(F)c2n1)[C@@]12CCCN1C[C@H](F)C2` [Example 319, (1S,7S,8S)-2-(7-(8-ethynylnaphthalen-1-yl)-8-fluoro-2-(((2R,7aS)-2-fluorotetrahydro-1H-pyrrolizin-7a(5H)-yl)methoxy-d2)pyrido[4,3-d]pyrimidin-4-yl)-8-fluoro-5-oxa-2-azabicyclo[5.1.0]octane] had an IC50 of less than 0.05 µM.

These data come from patent US20250282799A1, “SUBSTITUTED PYRIDO[4,3-d]PYRIMIDINES AS KRAS MODULATORS” (Alterome Therapeutics, Inc., priority 2023, published 2025).
